Test results from patent publication US9789111B2, “Casein kinase 1δ (CK 1δ) inhibitors” (Electrophoretics Limited, priority 2010, dated 2017).
One block for each compound: values may come before it.

Tests used:
[1] = target: CLK2 (Homo sapiens, UniProt P49760); assay: kinase inhibition assay panel; format: biochemical
[2] = target: CK1g1 (Homo sapiens, UniProt Q9HCP0); assay: kinase inhibition assay panel; format: biochemical
[3] = target: T1, CK1δ (Homo sapiens, UniProt P48730); assay: CK1δ inhibition assay (33P-ATP, CK1tide substrate); format: biochemical; details: range of kinase inhibition assays
T1 construct: Recombinant human full-length construct; GST; host or cells: insect cells
T1 sequence (P48730 1-409 isoform P48730-2): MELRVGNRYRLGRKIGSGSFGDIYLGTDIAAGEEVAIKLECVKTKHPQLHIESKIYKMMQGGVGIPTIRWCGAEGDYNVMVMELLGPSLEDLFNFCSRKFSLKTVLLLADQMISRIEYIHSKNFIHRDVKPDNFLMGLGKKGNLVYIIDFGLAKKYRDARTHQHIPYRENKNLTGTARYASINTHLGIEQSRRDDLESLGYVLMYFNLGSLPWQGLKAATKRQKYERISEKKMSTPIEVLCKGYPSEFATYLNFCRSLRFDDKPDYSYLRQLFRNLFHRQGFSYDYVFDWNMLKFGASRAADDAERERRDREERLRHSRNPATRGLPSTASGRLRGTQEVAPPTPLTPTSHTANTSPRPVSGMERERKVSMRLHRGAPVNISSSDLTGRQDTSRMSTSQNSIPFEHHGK
Procedure: The compounds of the invention may be tested for inhibition of casein kinase 1 delta (CK1δ) in accordance with the assay protocols described in US 2010/0152157, EP 1,636,375 or Hanger et al (2007) J. Biol. Chem. 282, 23645-23654. In particular, the assay was conducted in accordance with the following protocol:
(§1) Base Reaction buffer; 20 mM Hepes (pH 7.5), 10 mM MgCl2, 1 mM EGTA, 0.02% Brij35, 0.02 mg/ml BSA, 0.1 mM Na3VO4, 2 mM DTT, 1% DMSO
(§2) It should be noted that required cofactors are added individually to each kinase reaction.
(§3) • 1. Prepare indicated substrate in freshly prepared Base Reaction Buffer as described above • 2. Deliver any required cofactors to the substrate solution • 3. Deliver indicated kinase into the substrate solution and gently mix • 4. Deliver compounds in DMSO into the kinase reaction mixture • 5. Deliver ^33P-ATP (specific activity 0.01 μCi/μl final) into the reaction mixture to initiate the reaction • 6. Incubate kinase reaction for 120 min. at room temperature • 7. Reactions are spotted onto P81 ion exchange paper (Whatman #3698-915) • 8. Wash filters extensively in 0.75% Phosphoric acid Kinase Information: • CK1δ—Genbank Accession # NP_620693 • Recombinant human full-length construct. GST-tagged, expressed in insect cells. • Final concentration in assay=4 nM • Substrate: CK1tide • Substrate sequence: [KRRRAL[pS]VASLPGL] • Final substrate concentration in assay=20 μM • It should be noted that no additional cofactors are added to the reaction mixture.

[4] = target: CDK5/p25 (Homo sapiens, UniProt Q00535); assay: kinase inhibition assay panel; format: biochemical
Sequence of CDK5/p25 (Q00535 whole entry, species assumed): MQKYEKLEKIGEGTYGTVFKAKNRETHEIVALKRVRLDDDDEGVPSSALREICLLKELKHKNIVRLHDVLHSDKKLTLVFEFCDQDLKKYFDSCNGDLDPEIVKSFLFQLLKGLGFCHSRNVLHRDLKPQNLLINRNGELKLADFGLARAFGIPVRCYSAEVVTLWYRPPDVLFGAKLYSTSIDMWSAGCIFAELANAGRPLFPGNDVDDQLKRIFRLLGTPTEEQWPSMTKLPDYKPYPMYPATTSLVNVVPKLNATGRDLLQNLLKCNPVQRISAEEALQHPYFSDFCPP
Sequence of CDK5/p25 (Q15078 99-307 partner limits assumed, species assumed): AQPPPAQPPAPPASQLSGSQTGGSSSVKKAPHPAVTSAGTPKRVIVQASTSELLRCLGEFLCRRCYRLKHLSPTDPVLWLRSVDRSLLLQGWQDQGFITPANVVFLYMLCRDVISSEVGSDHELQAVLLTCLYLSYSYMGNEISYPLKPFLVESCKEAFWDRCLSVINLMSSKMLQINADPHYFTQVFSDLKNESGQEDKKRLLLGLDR
Procedure: as §1, §2, §3

[5] = target: PKCb2 (Homo sapiens, UniProt P05771); assay: kinase inhibition assay panel; format: biochemical
Procedure: as §1, §2, §3

[6] = target: GSK3b (Homo sapiens, UniProt P49841); assay: kinase inhibition assay panel; format: biochemical
Sequence of GSK3b (P49841 whole entry, species assumed): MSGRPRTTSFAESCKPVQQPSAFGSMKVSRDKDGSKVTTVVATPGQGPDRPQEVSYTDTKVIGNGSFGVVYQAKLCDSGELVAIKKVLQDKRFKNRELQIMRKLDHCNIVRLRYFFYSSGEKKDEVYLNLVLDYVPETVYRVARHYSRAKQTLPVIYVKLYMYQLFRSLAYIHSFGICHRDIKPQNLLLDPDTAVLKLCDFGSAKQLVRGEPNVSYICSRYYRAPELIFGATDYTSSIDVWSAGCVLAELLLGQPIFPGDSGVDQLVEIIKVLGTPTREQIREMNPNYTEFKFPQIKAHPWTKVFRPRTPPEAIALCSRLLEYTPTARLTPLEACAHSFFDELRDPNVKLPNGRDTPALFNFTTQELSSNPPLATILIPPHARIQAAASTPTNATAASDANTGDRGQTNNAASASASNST
Procedure: as §1, §2, §3

[7] = target: MSK1/RPS6KA5 (Homo sapiens, UniProt O75582); assay: kinase inhibition assay panel; format: biochemical
Procedure: as §1, §2, §3

[8] = target: ROCK1 (Homo sapiens, UniProt Q13464); assay: kinase inhibition assay panel; format: biochemical
Procedure: as §1, §2, §3

[9] = target: HGK/MAP4K4 (Homo sapiens, UniProt O95819); assay: kinase inhibition assay panel; format: biochemical
Sequence of HGK/MAP4K4 (O95819 whole entry): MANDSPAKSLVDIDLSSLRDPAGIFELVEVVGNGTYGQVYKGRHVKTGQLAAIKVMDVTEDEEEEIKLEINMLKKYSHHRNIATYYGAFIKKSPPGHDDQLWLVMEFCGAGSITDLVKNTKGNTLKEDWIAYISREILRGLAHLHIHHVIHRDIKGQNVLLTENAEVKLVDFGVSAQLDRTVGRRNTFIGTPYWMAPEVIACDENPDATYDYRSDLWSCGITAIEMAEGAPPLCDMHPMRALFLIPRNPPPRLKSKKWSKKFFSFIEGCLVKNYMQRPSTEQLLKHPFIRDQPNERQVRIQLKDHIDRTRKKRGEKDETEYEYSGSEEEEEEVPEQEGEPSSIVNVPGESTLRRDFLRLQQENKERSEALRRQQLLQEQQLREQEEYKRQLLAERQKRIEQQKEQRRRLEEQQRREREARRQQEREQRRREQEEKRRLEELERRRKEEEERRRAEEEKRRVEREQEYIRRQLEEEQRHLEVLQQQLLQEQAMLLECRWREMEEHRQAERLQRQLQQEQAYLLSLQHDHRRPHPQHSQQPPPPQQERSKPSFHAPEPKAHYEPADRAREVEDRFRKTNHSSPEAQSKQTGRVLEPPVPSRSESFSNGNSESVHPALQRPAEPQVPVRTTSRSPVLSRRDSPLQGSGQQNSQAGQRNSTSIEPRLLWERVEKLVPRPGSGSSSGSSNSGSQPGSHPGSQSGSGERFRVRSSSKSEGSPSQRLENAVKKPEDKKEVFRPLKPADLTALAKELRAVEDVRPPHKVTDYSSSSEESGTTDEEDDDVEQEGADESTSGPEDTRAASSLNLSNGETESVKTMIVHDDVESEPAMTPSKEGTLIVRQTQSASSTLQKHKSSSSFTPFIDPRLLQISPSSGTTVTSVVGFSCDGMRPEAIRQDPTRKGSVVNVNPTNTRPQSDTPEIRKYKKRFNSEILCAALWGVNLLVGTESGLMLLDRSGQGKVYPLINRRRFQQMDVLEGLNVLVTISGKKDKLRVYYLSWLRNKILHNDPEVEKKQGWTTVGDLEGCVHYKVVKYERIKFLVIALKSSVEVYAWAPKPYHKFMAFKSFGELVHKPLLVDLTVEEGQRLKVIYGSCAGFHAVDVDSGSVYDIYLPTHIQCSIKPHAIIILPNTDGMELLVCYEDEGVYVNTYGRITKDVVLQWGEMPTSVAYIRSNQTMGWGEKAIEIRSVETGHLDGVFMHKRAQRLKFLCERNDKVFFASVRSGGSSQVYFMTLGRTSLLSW
Procedure: as §1, §2, §3

[10] = target: c-SRC (Homo sapiens, UniProt P12931); assay: kinase inhibition assay panel; format: biochemical
Procedure: as §1, §2, §3

[11] = target: ABL2/ARG (Homo sapiens, UniProt P42684); assay: kinase inhibition assay panel; format: biochemical
Sequence of ABL2/ARG (P42684 whole entry): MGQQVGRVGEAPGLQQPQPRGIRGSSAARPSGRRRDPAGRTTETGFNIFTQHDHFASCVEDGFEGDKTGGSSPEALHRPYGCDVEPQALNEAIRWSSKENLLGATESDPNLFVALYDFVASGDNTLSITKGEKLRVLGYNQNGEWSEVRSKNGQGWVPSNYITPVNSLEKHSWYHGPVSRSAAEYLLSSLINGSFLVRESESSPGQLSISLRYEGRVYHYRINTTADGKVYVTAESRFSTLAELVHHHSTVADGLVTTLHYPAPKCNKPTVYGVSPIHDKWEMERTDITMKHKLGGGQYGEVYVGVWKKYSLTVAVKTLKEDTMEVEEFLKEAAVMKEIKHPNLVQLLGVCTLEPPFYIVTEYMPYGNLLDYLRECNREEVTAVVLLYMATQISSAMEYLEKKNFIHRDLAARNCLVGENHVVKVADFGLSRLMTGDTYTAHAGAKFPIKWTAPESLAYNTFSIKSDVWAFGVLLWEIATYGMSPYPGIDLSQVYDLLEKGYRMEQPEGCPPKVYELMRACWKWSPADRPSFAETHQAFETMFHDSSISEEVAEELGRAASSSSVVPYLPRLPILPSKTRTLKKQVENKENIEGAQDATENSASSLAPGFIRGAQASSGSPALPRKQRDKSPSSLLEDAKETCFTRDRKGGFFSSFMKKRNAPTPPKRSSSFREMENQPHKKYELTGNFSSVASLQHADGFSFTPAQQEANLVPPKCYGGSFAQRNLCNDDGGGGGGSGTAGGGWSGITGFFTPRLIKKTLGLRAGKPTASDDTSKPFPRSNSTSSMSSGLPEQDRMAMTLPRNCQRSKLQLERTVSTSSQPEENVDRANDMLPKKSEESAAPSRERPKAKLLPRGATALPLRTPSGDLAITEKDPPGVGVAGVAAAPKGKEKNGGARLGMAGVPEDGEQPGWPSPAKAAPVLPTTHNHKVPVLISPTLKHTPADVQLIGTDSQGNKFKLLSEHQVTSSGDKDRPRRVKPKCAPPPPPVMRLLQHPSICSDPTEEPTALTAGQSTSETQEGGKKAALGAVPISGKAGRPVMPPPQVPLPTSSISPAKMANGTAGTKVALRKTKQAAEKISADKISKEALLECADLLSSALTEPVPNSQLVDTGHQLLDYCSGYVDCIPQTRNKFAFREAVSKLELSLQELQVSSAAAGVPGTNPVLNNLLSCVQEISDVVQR
Procedure: as §1, §2, §3

[12] = target: T2, PDK1/PDPK1 (Homo sapiens, UniProt O15530); assay: kinase inhibition assay panel; format: biochemical
T2 sequence (O15530 1-556): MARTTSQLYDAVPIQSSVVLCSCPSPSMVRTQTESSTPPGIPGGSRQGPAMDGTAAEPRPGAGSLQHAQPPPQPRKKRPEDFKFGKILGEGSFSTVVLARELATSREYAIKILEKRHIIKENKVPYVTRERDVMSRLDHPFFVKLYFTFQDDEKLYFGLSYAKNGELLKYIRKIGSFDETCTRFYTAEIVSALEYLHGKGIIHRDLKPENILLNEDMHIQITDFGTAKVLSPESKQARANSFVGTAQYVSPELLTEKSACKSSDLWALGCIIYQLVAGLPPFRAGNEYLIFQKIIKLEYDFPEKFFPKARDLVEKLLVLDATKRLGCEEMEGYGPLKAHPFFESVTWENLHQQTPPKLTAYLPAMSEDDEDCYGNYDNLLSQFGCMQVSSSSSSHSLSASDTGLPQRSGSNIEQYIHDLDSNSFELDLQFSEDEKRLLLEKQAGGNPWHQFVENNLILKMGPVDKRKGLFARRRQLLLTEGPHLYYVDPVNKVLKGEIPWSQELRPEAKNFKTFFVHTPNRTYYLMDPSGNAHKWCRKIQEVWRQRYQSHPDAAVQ
Procedure: as §1, §2, §3

[13] = target: KDR/VEGFR2 (Homo sapiens, UniProt P35968); assay: kinase inhibition assay panel; format: biochemical
Sequence of KDR/VEGFR2 (P35968 20-1356): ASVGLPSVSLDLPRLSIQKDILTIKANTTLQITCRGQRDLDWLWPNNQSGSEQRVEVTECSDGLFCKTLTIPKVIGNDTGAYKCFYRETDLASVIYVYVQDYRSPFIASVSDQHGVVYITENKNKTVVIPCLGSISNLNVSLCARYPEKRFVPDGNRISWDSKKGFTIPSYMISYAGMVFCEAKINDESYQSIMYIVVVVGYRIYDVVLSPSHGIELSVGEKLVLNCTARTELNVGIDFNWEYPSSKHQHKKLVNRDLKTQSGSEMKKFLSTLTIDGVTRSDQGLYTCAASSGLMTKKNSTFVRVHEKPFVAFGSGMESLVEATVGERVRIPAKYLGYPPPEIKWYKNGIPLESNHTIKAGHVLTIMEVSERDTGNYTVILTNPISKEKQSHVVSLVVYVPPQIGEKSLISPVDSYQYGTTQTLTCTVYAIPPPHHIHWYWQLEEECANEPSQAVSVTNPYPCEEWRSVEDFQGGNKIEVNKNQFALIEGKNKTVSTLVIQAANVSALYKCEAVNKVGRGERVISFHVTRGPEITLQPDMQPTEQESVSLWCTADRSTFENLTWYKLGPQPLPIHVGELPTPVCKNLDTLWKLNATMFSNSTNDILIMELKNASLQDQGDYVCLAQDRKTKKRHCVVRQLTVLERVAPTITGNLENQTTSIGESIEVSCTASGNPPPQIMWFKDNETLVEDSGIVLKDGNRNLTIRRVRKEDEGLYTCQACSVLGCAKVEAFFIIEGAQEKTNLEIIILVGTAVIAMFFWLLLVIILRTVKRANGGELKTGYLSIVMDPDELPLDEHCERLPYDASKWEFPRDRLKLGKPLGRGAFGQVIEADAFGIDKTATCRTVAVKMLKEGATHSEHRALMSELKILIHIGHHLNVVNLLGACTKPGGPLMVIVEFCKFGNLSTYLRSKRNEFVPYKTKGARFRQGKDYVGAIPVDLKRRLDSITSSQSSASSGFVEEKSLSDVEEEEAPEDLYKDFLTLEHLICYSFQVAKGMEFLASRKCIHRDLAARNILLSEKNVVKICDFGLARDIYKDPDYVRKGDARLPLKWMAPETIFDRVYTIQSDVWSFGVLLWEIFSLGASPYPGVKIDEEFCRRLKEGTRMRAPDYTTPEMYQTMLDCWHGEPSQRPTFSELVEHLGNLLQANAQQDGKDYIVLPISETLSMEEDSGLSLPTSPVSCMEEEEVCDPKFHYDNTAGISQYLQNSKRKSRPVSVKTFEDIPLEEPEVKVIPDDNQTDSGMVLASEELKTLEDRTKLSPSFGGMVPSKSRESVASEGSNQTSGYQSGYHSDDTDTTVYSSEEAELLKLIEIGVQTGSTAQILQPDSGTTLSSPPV
Procedure: as §1, §2, §3

[14] = target: PIM3 (Homo sapiens, UniProt Q86V86); assay: kinase inhibition assay panel; format: biochemical
Procedure: as §1, §2, §3

[15] = target: PKCa (Homo sapiens, UniProt P17252); assay: kinase inhibition assay panel; format: biochemical
Procedure: as §1, §2, §3

[16] = target: LCK (Homo sapiens, UniProt P06239); assay: kinase inhibition assay panel; format: biochemical
Procedure: as §1, §2, §3

[17] = target: FGFR1 (Homo sapiens, UniProt P11362); assay: kinase inhibition assay panel; format: biochemical
[18] = target: CK1g2 (Homo sapiens, UniProt P78368); assay: kinase inhibition assay panel; format: biochemical
[19] = test system: Tau phosphorylation at key pathogenic sites in SH-SY5Y-TMHT cells; details: SH-SY5Y-TMHT cells exposed to kinase inhibitors; cited from earlier work
[20] = test system: total Tau in SH-SY5Y-TMHT cells; assay: Western Blot of total Tau; format: cell-based, human; details: 5 μM
Procedure: (§4) SH-SY5Y-TMHT cells are kept in culture medium (DMEM medium, 10% FCS, 1% NEAA, 1% L-Glutamine, 100 μg/ml Gentamycin, 300 μg/ml Geneticin G-418) for 2 days until 80-90% confluency. Cells are then differentiated in culture medium supplemented with 10 μM retinoic acid (RA) for 7 days changing medium every 2 to 3 days. Differentiated cells are seeded onto 6-well plates and 96-well plates at a cell density of 1.25×10^6 and 8×10^5 cells per well, respectively. On day 8 post-differentiation, the test compounds, reference compounds and vehicle control were added to the culture medium. After 6 h of compound exposure one plate of cells is subjected to a MTT assay to evaluate the effect of test and reference items on cell viability. Remaining wells are washed once with cold PBS and harvested in 300 μl RIPA-Buffer [50 mM Tris pH 7.4, 1% Nonident P40, 0.25% Na-deoxy-cholate, 150 mM NaCl, 1 mM EDTA, 1 μM NaF, 1 μM Na-ortho-vanadate, 80 mM Glycerophosphate, supplemented with freshly added protease (Calbiochem) and phosphatase (Sigma) inhibitor cocktail]. The cell suspension is transferred into a 1.5 ml tube and additionally lysed by sonication on ice. An aliquot of 20 μl is taken for the determination of the protein concentration (BCA assay). Subsequently, the lysates are snap frozen and stored at −80° C. until shipment.
(§5) Lysates of treated cells were prepared in Laemmli buffer and 10 μg loaded into each lane of a 10% Nu-PAGE gel (Invitrogen, UK). Samples were run until the coomassie blue dye fromt was within 1 cm of the bottom of the gel. The separated proteins were transferred onto nitrocellulose and blots developed using antibodies specific for total tau (Polyclonal Rabbit Anti-Human Tau, Dako, UK (cat # A0024)) and phopho-Threonine 231 (Tau (Phospho-Thr231) Antibody, Signalway Antibody, USA (cat # 11110)) respectively. In each case the bound antibody was detected using ECL Rabbit IgG, HRP-Linked (from donkey) (GE Healthcare, UK (cat # NA934))

[21] = test system: Tau phosphorylated at Threonine 231 in SH-SY5Y-TMHT cells; assay: Western Blot of Tau phosphorylated at Threonine 231; format: cell-based, human; details: 5 μM, Western Blot
Procedure: as §4, §5

[22] = test system: SH-SY5Y-TMHT cells; assay: Cell viability, MTT assay; format: cell-based, human; details: 0.5 μM (tested 0.1 μM to 1 μM), 6 h of treatment
Procedure: as §4
To determine compound activity, it is necessary to control for potential cell toxicity of all molecules. Viability of cultures is determined by the MTT assay. This assay allows the measurement of the mitochondrial dehydrogenase activity which reduces yellow MTT to dark blue formazan crystals. Since this reaction is catalyzed in living cells only this assay is used for the determination of cell viability. MTT solution is added to each well in a final concentration of 0.5 mg/ml. After 2 hours, the MTT containing medium is aspired. Cells are lysed in 3% SDS and the formazan crystals are dissolved in isopropanol/HCl. Optical density is measured with a plate-reader at wavelength 570 nm. Cell survival rate is expressed as optical density (OD). Values are calculated as percent of control values.
Cell viability was determined in differentiated SH-SY5Y-TMHT cells by the MTT assay. Test and reference compounds were applied in a concentration range from 0.05 μM to 10 μM and from 0.1 μM to 1 μM, respectively. Upon 6 h of treatment, cell viability was evaluated. […] Statistical significance is indicated by *<0.05, **<0.01, ***<0.001 as determined by One-Way ANOVA. Data are shown from two independent experiments as group mean+/−SEM (n=8). […] Statistical significance is indicated by *<0.05, **<0.01, ***<0.001 as determined by One-Way ANOVA. […] Statistical significance is indicated by *<0.05, **<0.01, ***<0.001 as determined by One-Way ANOVA. […]

inhibition of CLK2 [1]: lower than 40%
inhibition of CK1g1 [2]: lower than 40%
inhibition of CDK5/p25 [4]: lower than 40%
inhibition of PKCb2 [5]: lower than 40%
inhibition of GSK3b [6]: lower than 40%
inhibition of MSK1/RPS6KA5 [7]: lower than 40%
inhibition of ROCK1 [8]: lower than 40%
inhibition of HGK/MAP4K4 [9]: lower than 40%
inhibition of c-SRC [10]: lower than 40%
inhibition of ABL2/ARG [11]: lower than 40%
inhibition of PDK1/PDPK1 [12]: lower than 40%
inhibition of KDR/VEGFR2 [13]: lower than 40%
inhibition of PIM3 [14]: lower than 40%
inhibition of PKCa [15]: lower than 40%
inhibition of LCK [16]: lower than 40%
inhibition of FGFR1 [17]: lower than 40%
inhibition of CK1g2 [18]: lower than 40%
SMILES: NC(=O)c1c(N)n(C(=O)c2ccc(F)cc2)c2ccccc12 [Compound 999, 2-amino-1-[(4-fluorophenyl)carbonyl]-1H-indole-3-carboxamide]
selectivity for CK1δ when compared with other kinases [3]: significant and selective inhibition for CK1δ

SMILES: COc1cc(OC)c(C=C2C(O)=Nc3ccccc32)c(OC)c1 [IC261]
levels of Tau phosphorylation at key pathogenic sites [19]: reduced

SMILES: Nc1nccc(-c2c(-c3ccc(F)cc3)ncn2C2CCCCC2)n1 [PF670462, reference compound]
detectable levels of total Tau [20]: marginally less total Tau
detectable level of pT231 in Tau protein [21]: reduced the detectable level of pT231
effect on the cell viability of SH-SY5Y-TMHT cells [22]: significant protective effect
